ChEMBL document CHEMBL2202954, “The effect of PLC-γ2 inhibitors on the growth of human tumour cells” (2012)

Assays:
Type in all cases: functional
IGROV-1 = experiment: Cytotoxicity against human IGROV1 cells assessed as cellular growth at 10 uM by SRB assay
SK-MEL-2 = experiment: Cytotoxicity against human SK-MEL-2 cells assessed as cellular growth at 10 uM by SRB assay
OVCAR-8 = experiment: Cytotoxicity against human OVCAR8 cells assessed as cellular growth at 10 uM by SRB assay
SK-MEL-28 = experiment: Cytotoxicity against human SK-MEL-28 cells assessed as cellular growth at 10 uM by SRB assay
MDA-MB-231 = experiment: Cytotoxicity against human MDA-MB-231 cells assessed as cellular growth at 10 uM by SRB assay
SR = experiment: Cytotoxicity against human SR cells assessed as cellular growth at 10 uM by SRB assay
BT-549 = experiment: Cytotoxicity against human BT549 cells assessed as cellular growth at 10 uM by SRB assay
DU-145 = experiment: Cytotoxicity against human DU145 cells assessed as cellular growth at 10 uM by SRB assay
Malme-3M = experiment: Cytotoxicity against human MALME-3M cells assessed as cellular growth at 10 uM by SRB assay
EKVX = experiment: Cytotoxicity against human EKVX cells assessed as cellular growth at 10 uM by SRB assay
HL-60(TB) = experiment: Cytotoxicity against human HL-60(TB) cells assessed as cellular growth at 10 uM by SRB assay
UO-31 = experiment: Cytotoxicity against human UO31 cells assessed as cellular growth at 10 uM by SRB assay
MOLT-4 = experiment: Cytotoxicity against human MOLT4 cells assessed as cellular growth at 10 uM by SRB assay
OVCAR-4 = experiment: Cytotoxicity against human OVCAR4 cells assessed as cellular growth at 10 uM by SRB assay
HOP-92 = experiment: Cytotoxicity against human HOP92 cells assessed as cellular growth at 10 uM by SRB assay
OVCAR-5 = experiment: Cytotoxicity against human OVCAR5 cells assessed as cellular growth at 10 uM by SRB assay
SF-295 = experiment: Cytotoxicity against human SF295 cells assessed as cellular growth at 10 uM by SRB assay
HT-29 = experiment: Cytotoxicity against human HT-29 cells assessed as cellular growth at 10 uM by SRB assay
SN12C = experiment: Cytotoxicity against human SN12C cells assessed as cellular growth at 10 uM by SRB assay
A498 = experiment: Cytotoxicity against human A498 cells assessed as cellular growth at 10 uM by SRB assay

CC1(C)CC(=O)c2cc3c(N)c(C(=O)NCc4ccccc4)sc3nc2C1
Activity (IGROV-1): 107.02%
Activity (SK-MEL-2): 114.95%
Activity (OVCAR-8): 95.57%
Activity (SK-MEL-28): 102.38%
Activity (MDA-MB-231): 101.13%
Activity (SR): 116.5%
Activity (BT-549): 110.98%
Activity (DU-145): 113.73%
Activity (Malme-3M): 104.51%
Activity (EKVX): 108.91%
Activity (HL-60(TB)): 120.86%
Activity (UO-31): 110.68%
Activity (MOLT-4): 124.23%
Activity (OVCAR-4): 78.52%
Activity (HOP-92): 60.17%
Activity (OVCAR-5): 108.53%
Activity (SF-295): 100.81%
Activity (HT-29): 106.09%
Activity (SN12C): 98.59%
Activity (A498): 89.05%

COc1ccc(NC(=O)c2sc3nc4c(cc3c2N)C(=O)CCC4)cc1
Activity (IGROV-1): 114.88%
Activity (SK-MEL-2): 114.87%
Activity (OVCAR-8): 107.58%
Activity (SK-MEL-28): 106.67%
Activity (MDA-MB-231): 116.49%
Activity (SR): 113.2%
Activity (BT-549): 103.09%
Activity (DU-145): 102.19%
Activity (Malme-3M): 102.12%
Activity (EKVX): 102.57%
Activity (HL-60(TB)): 109.37%
Activity (UO-31): 106.6%
Activity (MOLT-4): 115.9%
Activity (OVCAR-4): 107.69%
Activity (HOP-92): 78.47%
Activity (OVCAR-5): 99.71%
Activity (SF-295): 80.98%
Activity (HT-29): 108.88%
Activity (SN12C): 116.88%
Activity (A498): 39.38%
